Test results: the supplement of paper PMC10307832

Tests used:
Assay in all cases: relative viability (nuclei count vs DMSO), 5 days (fraction); higher = more cells survive
[1] = compound: Cc1cnc(Nc2ccc(OCCN3CCCC3)cc2)nc1Nc1cccc(S(=O)(=O)NC(C)(C)C)c1 [Fedratinib] + Cc1cc(Nc2cc(N3CCN(C)CC3)nc(Sc3ccc(NC(=O)C4CC4)cc3)n2)n[nH]1 [Tozasertib] (partner 0.1 µM)
Method in brief: (§1)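 Lung cancer cell lines were pin-tool dosed in 1536-well plates on the day after seeding, with either a lone drug or a fixed anchor-drug dose plus five library-drug doses (not always all listed) in √10 steps. Nuclei were counted on 4× images after 5 days. Relative viability is the ratio of treated-well to vehicle-well nuclei counts, with each value a median of duplicate plates.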

[2] = compound: Cc1cnc(Nc2ccc(OCCN3CCCC3)cc2)nc1Nc1cccc(S(=O)(=O)NC(C)(C)C)c1 [Fedratinib] + CC(C)C[C@H](NC(=O)[C@H](Cc1ccccc1)NC(=O)c1cnccn1)B(O)O [Bortezomib] (partner 0.002 µM)
Method in brief: as §1

[3] = compound: Cc1cnc(Nc2ccc(OCCN3CCCC3)cc2)nc1Nc1cccc(S(=O)(=O)NC(C)(C)C)c1 [Fedratinib] + C[C@]1(O)C[C@@H](c2nc(-c3ccc4ccc(-c5ccccc5)nc4c3)c3c(N)nccn32)C1 [Linsitinib] (partner 1 µM)
Method in brief: as §1

[4] = compound: COC1=CC=C(C=C1)COC2=C(C=C(C=C2)CC3=CN=C(N=C3N)N)OC [GW-2580] + O=C(c1cc(Cc2n[nH]c(=O)c3ccccc23)ccc1F)N1CCN(C(=O)C2CC2)CC1 [Olaparib] (partner 8 µM)
Method in brief: as §1

[5] = compound: COC1=CC=C(C=C1)COC2=C(C=C(C=C2)CC3=CN=C(N=C3N)N)OC [GW-2580] + Cc1nc(NC(=O)N2CCC[C@H]2C(N)=O)sc1-c1ccnc(C(C)(C)C(F)(F)F)c1 [Alpelisib] (partner 2 µM)
Method in brief: as §1

| Cell Line | relative viability ([1]; first compound 0.1 µM) | relative viability ([1]; first compound 0.3162 µM) | relative viability ([1]; first compound 1 µM) | relative viability ([2]; first compound 0.1 µM) | relative viability ([2]; first compound 0.3162 µM) | relative viability ([2]; first compound 1 µM) | relative viability ([3]; first compound 0.1 µM) | relative viability ([3]; first compound 0.3162 µM) | relative viability ([3]; first compound 1 µM) | relative viability ([4]; first compound 0.08 µM) | relative viability ([4]; first compound 0.8 µM) | relative viability ([4]; first compound 2.53 µM) | relative viability ([4]; first compound 8 µM) | relative viability ([5]; first compound 0.08 µM) | relative viability ([5]; first compound 0.8 µM) | relative viability ([5]; first compound 2.53 µM) | relative viability ([5]; first compound 8 µM) |
| --- | --- | --- | --- | --- | --- | --- | --- | --- | --- | --- | --- | --- | --- | --- | --- | --- | --- |
| NCI-H1666 | 0.558 | 0.599 | 0.514 | 0.649 | 0.944 | 0.276 | 0.726 | 0.875 | 0.869 | 0.758 | 0.757 | 0.794 | 0.737 | 1.17 | 1.21 | 1 | 1.03 |
| LC-2-ad | 0.335 | 0.423 | 0.41 | 1.04 | 0.96 | 0.0819 | 0.838 | 0.85 | 0.71 | 0.723 | 0.727 | 0.702 | 0.722 | 0.934 | 0.932 | 0.875 | 0.87 |
| SK-LU-1 | 0.27 | 0.298 | 0.261 | 1.33 | 1.23 | 0.967 |  | 0.999 | 1.01 | 0.431 | 0.497 | 0.389 | 0.503 | 0.936 | 1.09 | 0.85 | 1.18 |
| COR-L 105 | 0.362 | 0.361 | 0.338 | 0.685 | 0.839 | 0.289 | 0.951 | 0.817 | 0.827 | 0.658 | 0.633 | 0.909 | 0.68 | 0.91 | 1.28 | 0.946 | 0.902 |
| NCI-H1975 | 0.44 | 0.734 | 0.389 | 0.388 | 0.405 | 0.163 | 0.897 | 0.929 | 0.872 | 0.815 | 0.864 | 0.874 | 0.806 | 0.693 | 0.778 | 0.647 | 0.596 |
| NCI-H1993 | 0.58 | 0.575 | 0.596 | 0.993 | 0.979 | 0.48 | 0.706 | 0.718 | 0.682 | 0.985 | 1.07 | 1.06 | 1.04 | 0.684 | 0.677 |  | 0.704 |
| RERF-LC-KJ | 0.292 | 0.38 | 0.347 | 1.06 | 1.16 | 1.05 | 0.805 | 0.906 | 0.855 | 1 | 1.04 | 0.888 | 0.861 | 0.771 | 0.803 | 0.732 | 0.793 |
| NCI-H23 | 0.528 | 0.364 | 0.303 | 0.946 | 0.943 | 0.173 | 0.583 | 0.618 | 0.431 | 0.329 | 0.329 | 0.321 | 0.273 | 0.76 | 0.735 | 0.512 | 0.749 |
| HCC-366 | 0.0591 | 0.123 | 0.072 | 1.22 | 1 | 0.174 | 0.55 | 0.663 | 0.663 | 0.379 | 0.526 | 0.387 | 0.417 | 0.367 | 0.575 | 0.43 | 0.355 |
| EMC-BAC-2 | 0.201 | 0.268 | 0.227 | 1.14 | 1.01 | 1.09 | 0.802 | 0.832 | 0.796 | 0.477 | 0.514 | 0.429 | 0.462 | 0.834 | 0.777 | 0.686 | 0.787 |
| NCI-H2405 | 0.418 | 0.705 | 0.612 | 1.05 | 0.77 | 0.957 | 0.704 | 0.962 | 0.702 | 0.911 | 0.981 | 0.797 | 0.712 | 0.794 | 0.718 | 0.751 | 0.751 |
| EPLC-272H | 0.178 | 0.318 | 0.251 | 0.946 | 0.83 | 0.451 | 1.45 | 0.983 | 0.993 | 0.819 | 0.861 | 0.755 | 0.605 | 0.996 | 1.08 | 0.904 | 0.98 |
| NCI-H1915 | 0.329 | 0.417 | 0.328 | 0.986 | 0.872 | 0.662 | 1.04 | 1.08 | 1.03 | 0.222 | 0.233 | 0.293 | 0.259 | 1.06 | 1.12 | 1.09 | 1.02 |
| NCI-H596 | 0.899 | 0.878 | 0.916 | 1.01 | 1.21 | 0.919 | 1.01 | 1.08 | 1.08 | 0.8 | 0.746 | 0.715 | 0.651 | 0.486 | 0.525 | 0.516 | 0.471 |
| NCI-H322M | 0.52 | 0.447 | 0.333 | 1.19 | 1.16 | 1.06 | 0.95 | 0.939 | 0.799 | 0.76 | 0.956 | 0.753 | 0.626 | 0.833 | 0.912 | 0.855 | 0.795 |
| NCI-H2228 | 0.188 | 0.221 | 0.227 | 1.35 | 0.866 | 0.408 | 0.609 | 0.837 | 0.543 | 0.667 | 0.828 | 0.785 | 0.635 | 0.91 | 0.886 | 0.627 | 0.775 |
| NCI-H647 | 0.249 | 0.336 | 0.214 | 0.976 | 1.16 | 0.395 | 1.14 | 1.16 | 1.11 | 0.776 | 0.667 | 0.444 | 0.71 | 1.44 | 1.45 | 1.04 | 1.13 |
| NCI-H2085 | 0.478 | 0.827 | 0.764 | 1.04 | 1.09 | 0.416 | 0.845 | 0.872 | 0.858 | 0.741 | 0.784 | 0.84 | 0.757 | 1.1 | 0.924 | 0.924 | 0.792 |
